One experiment addresses 229E Mpro (Human coronavirus 229E, UniProt P0C6X1). As to the kind of experiment: 229E Mpro enzymatic assay. Type of experiment: biochemical, HCoV 229E.
The next experiment addresses OC43 Mpro (Human coronavirus OC43, UniProt P0C6X6). Description: OC43 Mpro enzymatic assay. Type of experiment: biochemical, HCoV OC43.
The test system of another experiment is HCoV 229E. Description: HCoV 229E cytopathic effect (CPE) assay. Type of experiment: cell-based. To be noted: read-out: 229E CPE EC50. As for the experimental part: Compounds were assayed using standard methods against multiple coronaviral strains, including HCoV 229E and OC43 strains. The antiviral activity of compounds was calculated based on the protection of the virus-induced CPE at each concentration normalized by the virus control.
Reagents and instruments used in this assay include luminescent cell viability assay kit CellTiter Glo (Promega) and Microplate Reader Synergy2 (BioTek).
Cytopathic effect (CPE) was measured by CellTiter Glo following the manufacturer's manual. The antiviral activity of compounds was calculated based on the protection of the virus-induced CPE at each concentration normalized by the virus control.
The cytotoxicity of compounds was assessed under the same conditions, but without virus infection, in parallel. Cell viability was measured with CellTiter Glo. The antiviral activity and cytotoxicity of compounds were expressed as % Inhibition and % Viability, respectively, and calculated with formulas.
Background: Protection from cytopathic effect is a common read-out in antiviral testing.

The next experiment addresses SARS-COV2 Mpro (Severe acute respiratory syndrome coronavirus 2, UniProt P0DTD1). As to the kind of experiment: COVID-19 (nCoV-2019, SARS-CoV2) Mpro enzymatic assay. It is filed as biochemical.
Setting [1] is: Table 3, read-out: COVID-19 Mpro IC50.
[2] abbreviates: Table 5, read-out: COVID-19 Mpro IC50.

The structures appear in SMILES notation. pEC50, pIC50: −log10 of the molar value. Where two headings read alike, the source gives them in different places. Where only a bound is given, the exact number is not on record here.

The values that follow come from patent US20240277795A1, “INHIBITORS OF CYSTEINE PROTEASES AND METHODS OF USE THEREOF” (Pardes Biosciences, Inc., priority 2021, published 2024).

Sequence of 229E Mpro (P0C6X1 2966-3267): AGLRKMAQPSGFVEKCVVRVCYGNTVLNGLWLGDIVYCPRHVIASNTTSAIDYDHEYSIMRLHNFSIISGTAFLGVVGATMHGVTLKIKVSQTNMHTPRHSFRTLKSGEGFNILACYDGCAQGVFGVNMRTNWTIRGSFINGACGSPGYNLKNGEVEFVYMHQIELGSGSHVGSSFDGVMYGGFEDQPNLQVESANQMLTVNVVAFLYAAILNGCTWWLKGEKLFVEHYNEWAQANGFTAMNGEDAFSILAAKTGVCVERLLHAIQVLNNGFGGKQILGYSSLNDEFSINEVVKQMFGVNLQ
Sequence of OC43 Mpro (P0C6X6 3247-3549): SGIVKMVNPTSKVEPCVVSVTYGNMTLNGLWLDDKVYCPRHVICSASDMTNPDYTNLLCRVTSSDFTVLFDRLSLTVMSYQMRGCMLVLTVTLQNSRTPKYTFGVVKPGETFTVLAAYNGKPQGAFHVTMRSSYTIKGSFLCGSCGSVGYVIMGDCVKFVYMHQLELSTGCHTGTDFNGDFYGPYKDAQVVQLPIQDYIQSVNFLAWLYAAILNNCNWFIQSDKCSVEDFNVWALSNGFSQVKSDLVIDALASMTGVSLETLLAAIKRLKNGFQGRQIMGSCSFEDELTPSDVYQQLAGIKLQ

In general, pIC50 refers to −log10 of the IC50, conventionally taken in molar units. The term pEC50 denotes the negative decadic logarithm of the EC50, by convention in mol/L. For `N#C[C@H](C[C@@H]1CC2(CC2)NC1=O)NC(=O)[C@H](CC1CC1)NC(=O)[C@H](Cc1cccc2ccccc12)NC(=O)OCc1ccccc1` [Compound 110, benzyl((S)-1-(((S)-1-(((S)-1-cyano-2-((R)-5-oxo-4-azaspiro[2.4]heptan-6-yl)ethyl)amino)-3-cyclopropyl-1-oxopropan-2-yl)amino)-3-(naphthalen-1-yl)-1-oxopropan-2-yl)carbamate], the pIC50 against 229E Mpro (Table 3), against OC43 Mpro (Table 3) and against SARS-COV2 Mpro was above 5.70 in each case. Also, in the experiment on HCoV 229E (Table 4, CellTiter Glo), the pEC50 was above 5.70.

For the compound `CC(C)(C)[C@H](NC(=O)c1cnccn1)C(=O)N1C[C@H]2[C@@H]([C@H]1C(=O)N[C@H](C#N)C[C@@H]1CC3(CC3)NC1=O)C2(C)C` [Compound 129, (1R,2S,5S)—N-[(1S)-1-cyano-2-[(6R)-5-oxo-4-azaspiro[2.4]heptan-6-yl]ethyl]-3-[(2S)-3,3-dimethyl-2-(pyrazine-2-carbonylamino)butanoyl]-6,6-dimethyl-3-azabicyclo[3.1.0]hexane-2-carboxamide], the pIC50 against 229E Mpro (Table 3), against OC43 Mpro (Table 3) and at SARS-COV2 Mpro was above 5.70 each time. Moreover, in the experiment with HCoV 229E (Table 4, CellTiter Glo), the pEC50 was above 5.70.

Consider `CC(C)(C)[C@H](NC(=O)OCC(F)(F)F)C(=O)N1C[C@H]2[C@@H]([C@H]1C(=O)N[C@H](C#N)C[C@@H]1CC3(CC3)NC1=O)C2(C)C` [Compound 132, 2,2,2-trifluoroethyl ((S)-1-((1R,2S,5S)-2-(((S)-1-cyano-2-((R)-5-oxo-4-azaspiro[2.4]heptan-6-yl)ethyl)carbamoyl)-6,6-dimethyl-3-azabicyclo[3.1.0]hexan-3-yl)-3,3-dimethyl-1-oxobutan-2-yl)carbamate], for which the pIC50 on 229E Mpro (Table 3), against OC43 Mpro (Table 3) and on SARS-COV2 Mpro (setting [1]) was above 5.70 each time. Further, the pEC50 with HCoV 229E is above 5.70.

Turning to `COCCOC(=O)N[C@H](C(=O)N1C[C@H]2[C@@H]([C@H]1C(=O)N[C@H](C#N)C[C@@H]1CC3(CC3)NC1=O)C2(C)C)C(C)(C)C` [Compound 133, 2-methoxyethyl ((S)-1-((1R,2S,5S)-2-(((S)-1-cyano-2-((R)-5-oxo-4-azaspiro[2.4]heptan-6-yl)ethyl)carbamoyl)-6,6-dimethyl-3-azabicyclo[3.1.0]hexan-3-yl)-3,3-dimethyl-1-oxobutan-2-yl)carbamate], the pIC50 against 229E Mpro (Table 3), at OC43 Mpro (Table 3) and against SARS-COV2 Mpro was above 5.70 throughout. In addition, in the experiment on HCoV 229E (Table 4, CellTiter Glo), the pEC50 was above 5.70.

`CC1(C)C[C@@H](C[C@@H](C#N)NC(=O)[C@@H]2[C@@H]3[C@H](CN2C(=O)[C@@H](NC(=O)C(F)(F)F)C2CCC(C)(C)O2)C3(C)C)C(=O)N1` (stereo partly shown) [Compound 328]: the pIC50 at 229E Mpro (Table 3), against OC43 Mpro (Table 3) and on SARS-COV2 Mpro (setting [1]) was above 5.70 throughout.

On to `C[C@@H](OC1CC(F)(F)C1)[C@H](NC(=O)C(F)(F)F)C(=O)N1C[C@H]2[C@@H]([C@H]1C(=O)N[C@H](C#N)C[C@@H]1CC(C)(C)NC1=O)C2(C)C` [Compound 330, (1R,2S,5S)—N-[(1S)-1-cyano-2-[(3R)-5,5-dimethyl-2-oxo-pyrrolidin-3-yl]ethyl]-3-[(2S,3R)-3-(3,3-difluorocyclobutoxy)-2-[(2,2,2-trifluoroacetyl)amino]butanoyl]-6,6-dimethyl-3-azabicyclo[3.1.0]hexane-2-carboxamide], for which the pIC50 on 229E Mpro (Table 3), against OC43 Mpro (Table 3) and on SARS-COV2 Mpro (setting [1]) was above 5.70 throughout.

`C[C@@H](OC1(C2CC2)CC1)[C@H](NC(=O)C(F)(F)F)C(=O)N1C[C@H]2[C@@H]([C@H]1C(=O)N[C@H](C#N)C[C@@H]1CC3(CC3)NC1=O)C2(C)C` [Compound 331, (1R,2S,5S)—N-[(1S)-1-cyano-2-[(6R)-5-oxo-4-azaspiro[2.4]heptan-6-yl]ethyl]-3-[(2S,3R)-3-(1-cyclopropylcyclopropoxy)-2-[(2,2,2-trifluoroacetyl)amino]butanoyl]-6,6-dimethyl-3-azabicyclo[3.1.0]hexane-2-carboxamide]: the pIC50 against 229E Mpro (Table 3), against OC43 Mpro (Table 3) and on SARS-COV2 Mpro (setting [1]) was above 5.70 in each case.

On to `C[C@@H](OC1(C#N)CC1)[C@H](NC(=O)C(F)(F)F)C(=O)N1C[C@H]2[C@@H]([C@H]1C(=O)N[C@H](C#N)C[C@@H]1CC(C)(C)NC1=O)C2(C)C` [Compound 334, (1R,2S,5S)-3-[(2S,3R)-3-(1-cyanocyclopropoxy)-2-[(2,2,2-trifluoroacetyl)amino]butanoyl]-N-[(1S)-1-cyano-2-[(3R)-5,5-dimethyl-2-oxo-pyrrolidin-3-yl]ethyl]-6,6-dimethyl-3-azabicyclo[3.1.0]hexane-2-carboxamide], for which the pIC50 on 229E Mpro (Table 5), against OC43 Mpro (Table 5) and on SARS-COV2 Mpro (setting [2]) was above 5.70 throughout.

Consider `C[C@@H](OC1(C#N)CC1)[C@H](NC(=O)C(F)(F)F)C(=O)N1C[C@H]2[C@@H]([C@H]1C(=O)N[C@H](C#N)C[C@@H]1CC3(CC3)NC1=O)C2(C)C` [Compound 335], for which the pIC50 against 229E Mpro (Table 5), against OC43 Mpro (Table 5) and on SARS-COV2 Mpro (setting [2]) was above 5.70 in each case.

Turning to `C[C@@H](OC(C)(C)C(F)(F)F)[C@H](NC(=O)C(F)(F)F)C(=O)N1C[C@H]2[C@@H]([C@H]1C(=O)N[C@H](C#N)C[C@@H]1CC(C)(C)NC1=O)C2(C)C` [Compound 357, (1R,2S,5S)—N-[(1S)-1-cyano-2-[(3R)-5,5-dimethyl-2-oxo-pyrrolidin-3-yl]ethyl]-6,6-dimethyl-3-[(2S,3R)-2-[(2,2,2-trifluoroacetyl)amino]-3-(2,2,2-trifluoro-1,1-dimethyl-ethoxy)butanoyl]-3-azabicyclo[3.1.0]hexane-2-carboxamide], the pIC50 against 229E Mpro (Table 5), on OC43 Mpro (Table 5) and on SARS-COV2 Mpro (setting [2]) was above 5.70 each time.

In the case of `C[C@@H](OC(C)(C)C(F)(F)F)[C@H](NC(=O)C(F)(F)F)C(=O)N1C[C@H]2[C@@H]([C@H]1C(=O)N[C@H](C#N)C[C@@H]1CC3(CC3)NC1=O)C2(C)C` [Compound 358, (1R,2S,5S)—N-[(1S)-1-cyan-2-[(6R)-5-oxo-4-azaspiro[2.4]heptan-6-yl]ethyl]-6,6-dimethyl-3-[(2S,3R)-2-[(2,2,2-trifluoroacetyl)amino]-3-(2,2,2-trifluoro-1,1-dimethyl-ethoxy)butanoyl]-3-azabicyclo[3.1.0]hexane-2-carboxamide], the pIC50 against 229E Mpro (Table 5), against OC43 Mpro (Table 5) and on SARS-COV2 Mpro (setting [2]) was above 5.70 in each case.

On to `CC1(C)CCC(C[C@@H](C#N)NC(=O)[C@@H]2[C@@H]3[C@H](CN2C(=O)[C@@H](NC(=O)C(F)(F)F)C(C)(C)C)C3(C)C)C(=O)N1` (stereo partly drawn) [Compound 361, (1R,5S)—N-[(1S)-1-cyano-2-(6,6-dimethyl-2-oxo-3-piperidyl)ethyl]-3-[(2S)-3,3-dimethyl-2-[(2,2,2-trifluoroacetyl)amino]butanoyl]-6,6-dimethyl-3-azabicyclo[3.1.0]hexane-2-carboxamide], for which the pIC50 was 4.52 to 5.00 against 229E Mpro (Table 3), above 5.70 against OC43 Mpro (Table 3) and above 5.70 at SARS-COV2 Mpro (setting [1]).

Regarding `CC(C)(C)[C@H](NC(=O)C(F)(F)F)C(=O)N1C[C@H]2[C@@H]([C@H]1C(=O)N[C@H](C#N)C[C@@H]1CC3(CCC3)NC1=O)C2(C)C` [Compound 362, (1R,2S,5S)—N-[(1S)-1-cyano-2-[(7R)-6-oxo-5-azaspiro[3.4]octan-7-yl]ethyl]-3-[(2S)-3,3-dimethyl-2-[(2,2,2-trifluoroacetyl)amino]butanoyl]-6,6-dimethyl-3-azabicyclo[3.1.0]hexane-2-carboxamide], the pIC50 against 229E Mpro (Table 3), on OC43 Mpro (Table 3) and at SARS-COV2 Mpro (setting [1]) was above 5.70 in each case.

Turning to `CC(C)(C)[C@H](NC(=O)C(F)(F)F)C(=O)N1C[C@H]2[C@@H]([C@H]1C(=O)N[C@H](C#N)C[C@@]1(C)CC3(CC3)NC1=O)C2(C)C` [Compound 375], the pIC50 against 229E Mpro (Table 3), at OC43 Mpro (Table 3) and at SARS-COV2 Mpro (setting [1]) was above 5.70 in each case.

`CO[C@H](C)[C@H](NC(=O)C(F)(F)F)C(=O)N1C[C@H]2[C@@H]([C@H]1C(=O)N[C@H](C#N)C[C@@H]1CC3(CCC3)NC1=O)C2(C)C` [Compound 425, (1R,2S,5S)—N-[(1S)-1-cyano-2-[(7R)-6-oxo-5-azaspiro[3.4]octan-7-yl]ethyl]-3-[(2S,3R)-3-methoxy-2-[(2,2,2-trifluoroacetyl)amino]butanoyl]-6,6-dimethyl-3-azabicyclo[3.1.0]hexane-2-carboxamide]: the negative logarithm of the IC50 (pIC50) at 229E Mpro (Table 5), at OC43 Mpro (Table 5) and on SARS-COV2 Mpro (setting [2]) was above 5.70 in each case.

Take `C[C@@H](OC(C)(C)C)[C@H](NC(=O)C(F)(F)F)C(=O)N1C[C@H]2[C@@H]([C@H]1C(=O)N[C@H](C#N)C[C@@H]1CCCNC1=O)C2(C)C` [Compound 431, (1R, 2S, 5S)-3-((2S, 3R)-3-(tert-butoxy)-2-(2,2,2-trifluoroacetamido)butanoyl)-N—((S)-1-cyano-2-((S)-2-oxopiperidin-3-yl)ethyl)-6,6-dimethyl-3-azabicyclo[3.1.0]hexane-2-carboxamide]: the negative-log IC50 (pIC50) against 229E Mpro (Table 5), against OC43 Mpro (Table 5) and at SARS-COV2 Mpro (setting [2]) was above 5.70 each time.
